Calls of active or inactive are those of the source. The rule behind the calls is not given here.
How the values were obtained:
Enterobacter asburiae = assay: Antibacterial activity against Enterobacter asburiae KRICT3 at 1.6 mg/l after 24 hr; assay type: functional, organism-based
Serratia marcescens = assay: Antibacterial activity against Serratia marcescens subsp. marcescens KRICT4 at 1.6 mg/l after 24 hr; assay type: functional, organism-based
[1] = system: Bursaphelenchus xylophilus; assay: Nematicidal activity against Bursaphelenchus xylophilus in pot-grown three-year-old trees of Pinus densiflora assessed as reduction of disease incidence at 2% treated 3 months before inoculation measured after 9 months by measuring dead trees relative to control; assay type: functional; design: scale not given: the % may be the effect or the level left
[2] = system: Bursaphelenchus xylophilus; assay: Nematicidal activity against Bursaphelenchus xylophilus in pot-grown three-year-old trees of Pinus densiflora assessed as reduction of disease incidence at 2% treated 3 months before inoculation measured after 9 months by measuring dead trees; assay type: functional; design: scale not given: the % may be the effect or the level left
[3] = system: Bursaphelenchus xylophilus; assay: Nematicidal activity against Bursaphelenchus xylophilus assessed as mortality at 0.34 mg/l after 48 hr; assay type: functional
[4] = system: Bursaphelenchus xylophilus; assay: (§1) Nematicidal activity against Bursaphelenchus xylophilus in pot-grown three-year-old trees of Pinus densiflora assessed as reduction of disease incidence at 3.6 mg/seedlings treated 7 days before inoculation measured after 1 month by measuring dead seedling under greenhouse condition relative to control; assay type: functional; design: scale not given: the % may be the effect or the level left
[5] = system: Bursaphelenchus xylophilus; assay: Nematicidal activity against Bursaphelenchus xylophilus in pot-grown three-year-old trees of Pinus densiflora assessed as reduction of disease incidence at 3.6 mg/seedlings treated 7 days before inoculation measured after 1 month by measuring dead seedling under greenhouse condition; assay type: functional; design: scale not given: the % may be the effect or the level left
[6] = system: Bursaphelenchus xylophilus; assay: Nematicidal activity against Bursaphelenchus xylophilus in pot-grown three-year-old trees of Pinus densiflora assessed as reduction of disease incidence at 10% treated 3 months before inoculation measured after 9 months by measuring dead trees relative to control; assay type: functional; design: scale not given: the % may be the effect or the level left
[7] = system: Bursaphelenchus xylophilus; assay: Nematicidal activity against Bursaphelenchus xylophilus in pot-grown three-year-old trees of Pinus densiflora assessed as reduction of disease incidence at 10% treated 3 months before inoculation measured after 9 months by measuring dead trees; assay type: functional; design: scale not given: the % may be the effect or the level left
[8] = system: Bursaphelenchus xylophilus; assay: Nematicidal activity against Bursaphelenchus xylophilus assessed as mortality at 10 mg/l after 48 hr; assay type: functional
Ewingella americana = assay: Antibacterial activity against Ewingella americana KRICT5 at 1.6 mg/l after 24 hr; assay type: functional, organism-based
[9] = system: Peribacillus frigoritolerans; assay: Antibacterial activity against [Brevibacterium] frigoritolerans KRICT2 at 1.6 mg/l after 24 hr; assay type: functional, organism-based
[10] = system: Bursaphelenchus xylophilus; assay: as §1, with “30” for “3.6”; assay type: functional; design: scale not given: the % may be the effect or the level left
[11] = system: Bursaphelenchus xylophilus; assay: as §1, with “10” for “3.6”; assay type: functional; design: scale not given: the % may be the effect or the level left
[12] = system: Bursaphelenchus xylophilus; assay: as §1, with “3” for “3.6”; assay type: functional; design: scale not given: the % may be the effect or the level left
[13] = system: Bursaphelenchus xylophilus; assay: Nematicidal activity against Bursaphelenchus xylophilus in pot-grown three-year-old trees of Pinus densiflora assessed as reduction of disease incidence at 30 mg/seedlings treated 7 days before inoculation measured after 1 month by measuring dead seedling under greenhouse condition; assay type: functional; design: scale not given: the % may be the effect or the level left
[14] = system: Bursaphelenchus xylophilus; assay: Nematicidal activity against Bursaphelenchus xylophilus in pot-grown three-year-old trees of Pinus densiflora assessed as reduction of disease incidence at 10 mg/seedlings treated 7 days before inoculation measured after 1 month by measuring dead seedling under greenhouse condition; assay type: functional; design: scale not given: the % may be the effect or the level left
[15] = system: Bursaphelenchus xylophilus; assay: Nematicidal activity against Bursaphelenchus xylophilus in pot-grown three-year-old trees of Pinus densiflora assessed as reduction of disease incidence at 3 mg/seedlings treated 7 days before inoculation measured after 1 month by measuring dead seedling under greenhouse condition; assay type: functional; design: scale not given: the % may be the effect or the level left

Row | Compound | Activity (Enterobacter asburiae) | Activity (Serratia marcescens) | Activity [1] | Activity [2] | Activity [3] | Activity [4] | Activity [5] | Activity [6] | Activity [7] | Activity [8] | Activity (Ewingella americana) | Activity [9] | Activity [10] | Activity [11] | Activity [12] | Activity [13] | Activity [14] | Activity [15]
1 | CN(C)[C@@H]1C(O)=C(C(N)=O)C(=O)[C@@]2(O)C(O)=C3C(=O)c4c(O)cccc4[C@@](C)(O)[C@H]3[C@H](O)[C@@H]12 | Active | Active | – | – | – | – | – | – | – | – | – | – | – | – | – | – | – | –
2 | CC[C@H](C)[C@H]1O[C@]2(C=C[C@@H]1C)C[C@@H]1C[C@@H](C/C=C(\C)[C@@H](O[C@H]3C[C@H](OC)[C@@H](O[C@H]4C[C@H](OC)[C@@H](O)[C@H](C)O4)[C@H](C)O3)[C@@H](C)/C=C/C=C3\CO[C@@H]4[C@H](O)C(C)=C[C@@H](C(=O)O1)[C@]34O)O2.CO[C@H]1C[C@H](O[C@H]2[C@H](C)O[C@@H](O[C@@H]3/C(C)=C/C[C@@H]4C[C@@H](C[C@]5(C=C[C@H](C)[C@@H](C(C)C)O5)O4)OC(=O)[C@@H]4C=C(C)[C@@H](O)[C@H]5OC/C(=C\C=C\[C@@H]3C)[C@]54O)C[C@@H]2OC)O[C@@H](C)[C@@H]1O [ABAMECTIN] | – | – | 93% | 6.7% | 90% | 71% | 20% | – | – | – | – | – | – | – | – | – | – | –
3 | CCn1cc(C(=O)O)c(=O)c2cc3c(cc21)OCO3 [OXOLINIC ACID] | – | Active | – | – | – | – | – | 74% | 23.3% | 22% | Active | Active | 57% | 57% | 71% | 30% | 30% | 20%

Reference: ChEMBL document CHEMBL3045013, “Suppression of pine wilt disease by an antibacterial agent, oxolinic acid” (2010)
